# Test results taken from ChEMBL document CHEMBL1122382, “An evaluation of certain chain-extended analogues of 9-beta-D-arabinofuranosyladenine for antiviral and cardiovascular activity” (1983).
# pIC50: −log10 of the molar value.
# How the values were obtained:
# [1] = system: Canis familiaris; test: Compound was evaluated for the cardiovascular activity, expressed as maximum % response achieved with standard (administered intravenously at a dose of 0.10 mg/kg) at a dose of 1.0 mg/kg of the compound; type: functional, Canis lupus familiaris, Heart
# [2] = system: Human alphaherpesvirus 1; test: Compound was evaluated for virus rating (VR) which is the weighted measurement of in vitro antiviral activity, based on the inhibition of HSV-1 virus-induced cytopathogenic effects. VR > 1, active; type: functional
# [3] = system: Human alphaherpesvirus 1; test: Antiviral activity against herpes simplex virus type 1 (strain 377).; type: functional; conditions: read-out: ID50 (the source's name)
# [4] = system: Human alphaherpesvirus 1; test: Compound was evaluated for virus rating (VR) which is the weighted measurement of in vitro antiviral activity, based on the inhibition of HSV-1 virus-induced cytopathogenic effects. VR = 0.5-0.9 indicates marginal activity; type: functional
# [5] = system: Human alphaherpesvirus 1; test: Antiviral activity against herpes simplex virus type 1 (strain HF).; type: functional; conditions: read-out: ID50 (the source's name)
# [6] = system: Human alphaherpesvirus 1; test: Virus rating (VR) which is the weighted measurement of in vitro antiviral activity, based on the inhibition of HSV-1 virus-induced cytopathogenic effects. VR > 1, active.; type: functional
# [7] = Compound was evaluated for antiviral activity of the compound, expressed as ID50 for the inhibition of cellular DNA and protein synthesis in wild-type cells; type: functional; conditions: read-out: ID50 (the source's name)
# [8] = system: Ara-A; test: Compound was evaluated for antiviral activity of the compound, expressed as ID50 for the inhibition of cellular DNA and protein synthesis in ara-A resistant cells; type: functional; conditions: Homo sapiens; read-out: ID50 (the source's name)
# [9] = Compound was evaluated for in vitro therapeutic index ratio of the ID50 for inhibition of cellular DNA and protein synthesis to the ID50 for inhibition of virus replication; type: functional
# [10] = system: Canis familiaris; test: Compound was evaluated for the cardiovascular activity, expressed as maximum percent response achieved with standard (administered intravenously at a dose of 0.10 mg/kg) at a dose of 1.0 mg/kg of compound; type: functional, Canis lupus familiaris, Heart
# [11] = system: Human alphaherpesvirus 1; test: Virus rating (VR) which is the weighted measurement of in vitro antiviral activity, based on the inhibition of virus-induced cytopathogenic effects. VR > 1, active.; type: functional
# [12] = Compound was evaluated for antiviral activity expressed as ID50 for the inhibition of cellular DNA and protein synthesis in wild-type cells; type: functional; conditions: read-out: ID50 (the source's name)
# [13] = system: Ara-A; test: Compound was evaluated for antiviral activity expressed as ID50 for the inhibition of cellular DNA and protein synthesis in ara-A resistant cells; type: functional; conditions: Homo sapiens; read-out: ID50 (the source's name)
SMILES,pIC50 [3],pIC50 [5],Ratio [9],VR [11],also measured
CCOC(=O)CC[C@H]1OC(n2cnc3c(N)ncnc32)[C@@H](O)[C@@H]1O (some centres undefined),3.14,–,–,–,Response [1]: 39%; VR [2]: 1
Nc1ncnc2c1ncn2C1O[C@H](CCC(=O)O)[C@@H](O)[C@@H]1O (some centres undefined),–,–,–,–,VR [4]: 0.3
Nc1ncnc2c1ncn2C1O[C@H](CCCO)[C@@H](O)[C@@H]1O (some centres undefined),3.19,3.28,2.1,–,VR [6]: 1.5; pIC50 [7]: 2.73; pIC50 [8]: 2.82
NC(=O)CC[C@H]1OC(n2cnc3c(N)ncnc32)[C@@H](O)[C@@H]1O (some centres undefined),3.24,–,–,1.6,Response [10]: 10%
Nc1ncnc2c1ncn2[C@@H]1O[C@H](CO)[C@@H](O)[C@H]1O [ADENOSINE],4.66,4.38,3.1,2.5,pIC50 [12]: 5.62; pIC50 [13]: 3.62
